These results are taken from PMC6610884 (Journal of medicinal chemistry, 2018).

Several values for one entry are separate records, joined by “and”; a condition that tells them apart may be missing. Equal entries are not always repeated. Where two headings read alike, the source gives them in different places.

One assay deals with P. berghei blood stages. The following applies: Pb-infected mice, single oral 50 mg/kg dose 1 day PI, compared to untreated animals.
Assay [1] relates to P. berghei liver stages. The format is in vivo, Plasmodium berghei. The following applies: liver stage model, mice.
The subject of a further assay is Plasmodium cynomolgi. The following applies: rhesus monkeys; cited from earlier work.
The next assay relates to P. falciparum TM90-C2B. The following applies: RI = EC50(TM90-C2B)/EC50(W2); cited from earlier work.
Assay [2] deals with P. berghei liver stages. The note with it: read-out: liver stage activity; cited from earlier work.
The mark [3] stands for this setting: single dose 50 mg/kg subcutaneous.

Consider `COC(=O)c1c[nH]c2cc(CN3CCN(c4ccc(C(F)(F)F)cc4)CC3)c(C)cc2c1=O` [8v, Methyl 6-Methyl-4-oxo-7-((4-(4-(trifluoromethyl)phenyl)-piperazin-1-yl)methyl)-1,4-dihydroquinoline-3-carboxylate], for which the “% inhibition day 6 PI” value in the assay with P. berghei blood stages was “completely inhibited parasite growth”. Turning to `COC(=O)c1c[nH]c2cc(CN3CCN(Cc4ccc(OC)cc4)CC3)ccc2c1=O` [8l, Methyl 7-((4-(4-Methoxybenzyl)piperazin-1-yl)methyl)-4-oxo-1,4-dihydroquinoline-3-carboxylate], the no. of cures in the assay on P. berghei liver stages [1] (single dose 25 mg/kg oral) is 0/5; in the assay on P. berghei liver stages [1] (single dose 50 mg/kg oral), 0/5; with P. berghei liver stages [1] (setting [3]), 0/5; with P. berghei liver stages [1] (single dose 100 mg/kg oral, 100 mg/kg), “one of five and 1/5”. Consider `COC(=O)c1c[nH]c2cc(CN3CCN(c4ccc(C(F)(F)F)cc4)CC3)c(OC)cc2c1=O` [8ab, Methyl 6-Methoxy-4-oxo-7-((4-(4-(trifluoromethyl)phenyl)-piperazin-1-yl)methyl)-1,4-dihydroquinoline-3-carboxylate], for which, in the assay on P. berghei blood stages, the “% inhibition day 6 PI” value is “completely inhibited parasite growth”. Regarding `CCCCc1cc2c(=O)c(C(=O)OCC)c[nH]c2cc1OCCOc1ccccc1` [compound 1], the “radical cure (eradication of dormant exoerythrocytic stages)” value in the assay with Plasmodium cynomolgi is “radical cures”. Turning to `CCCCc1cc2c(=O)c(Br)c(C)[nH]c2cc1OCCOc1ccccc1` [compound 2, 3-bromo-6-butyl-2-methyl-7-(2-phenoxyethoxy)quinolin-4(1H)-one], the “resistance index (RI)” value in the assay with P. falciparum TM90-C2B is reported as 4.7. For the same compound, the EC50 in the assay on P. berghei liver stages [2] was 2.12 nM. For the compound `Cc1[nH]c2cc(CN3CCN(c4ccc(F)cc4)CC3)ccc2c(=O)c1Br` [8an, 3-Bromo-7-((4-(4-Fluorophenyl)piperazin-1-yl)methyl)-2-methylquinolin-4(1H)-one], the “% inhibition day 6 PI” value with P. berghei blood stages is “completely inhibited parasite growth”. With `COC(=O)c1c[nH]c2cc(CN3CCN(c4ccccc4)CC3)ccc2c1=O` [8j, Methyl 4-Oxo-7-((4-phenylpiperazin-1-yl)methyl)-1,4-dihydroquinoline-3-carboxylate], the no. of cures in the assay with P. berghei liver stages [1] (single dose 25 mg/kg oral) was 2/5; with P. berghei liver stages [1] (single dose 50 mg/kg oral), 2/5; with P. berghei liver stages [1] (setting [3]) it was 3/5; with P. berghei liver stages [1] (single dose 100 mg/kg oral) it was 5/5. Turning to `COC(=O)c1c[nH]c2cc(CN3CCN(c4ccc(C(F)(F)F)cc4)CC3)ccc2c1=O` [8p, Methyl 4-Oxo-7-((4-(4-(trifluoromethyl)phenyl)piperazin-1-yl)-methyl)-1,4-dihydroquinoline-3-carboxylate], the “% inhibition day 6 PI” value in the assay with P. berghei blood stages was “completely inhibited parasite growth”.
